pEC50, pIC50: −log10 of the molar value.
What was measured:
[1] = system: SNU-C2B; assay: OncoPanel cell proliferation assay, SNU-C2B; type: cell-based, human; details: scale 0-10
Procedure: (§1) Cells were grown in RPMI 1640, 10% FBS, 2 mM L-alanyl-L-glutamine, 1 mM Na pyruvate, or a special medium. Cells were seeded into 384-well plates and incubated in a humidified atmosphere of 5% CO2 at 37° C. Compounds were added the day following cell seeding. At the same time, a time zero untreated cell plate was generated. After a 3-day incubation period, cells were fixed and stained to allow fluorescence imaging of nuclei. Compounds (1 mM stock solutions) were serially diluted in half-log steps from the highest test concentration ([…]), and assayed over 10 concentrations with a maximum assay concentration of 0.1% DMSO. Automated fluorescence microscopy was carried out using a Molecular Devices ImageXpress Micro XL high-content imager, and images were collected with a 4× objective. 16-bit TIFF images were acquired and analyzed with MetaXpress 5.1.0.41 software.
(§2) Cell proliferation was measured by the fluorescence intensity of an incorporated nuclear dye. The output is referred to as the relative cell count, where the measured nuclear intensity is transformed to percent of control (POC) using the following formula: […]
(§3) Cellular response parameters were calculated using nonlinear regression to a sigmoidal single-site dose response model:
(§4) Where y is a response measured at concentration x, A and B are the lower and upper limits of the response, C is the concentration at the response midpoint (EC50), and D is the Hill Slope (Ref. 1).
(§5) EC50 is the test compound concentration at the curve inflection point or half the effective response (parameter C of the fitted curve solution). GI50 is the concentration needed to reduce the observed growth by half (midway between the curve maximum and the time zero value). “Cell Count Activity Area” is an estimate of the integrated area above the curve (Barretina, et al. The Cancer Cell Line Encyclopedia enables predictive modelling of anticancer drug sensitivity. Nature 483: 603-607). […] In rare instances, values <0 or >10 may be observed. […] Curve-fitting, calculations, and report generation was performed using a custom data reduction engine and MathIQ based software (AIM).

[2] = system: A101D; assay: OncoPanel cell proliferation assay, A101D; type: cell-based, human
Procedure: as §1, §2, §3, §4, §5

[3] = system: SHP-77; assay: OncoPanel cell proliferation assay, SHP-77; details: for Relative cell count (%) Mean: SHP-77
Procedure: (§6) Cells were seeded into 384-well plates and incubated in a humidified atmosphere of 5% CO2 at 37° C. Compounds were added the day following cell seeding. At the same time, a time zero untreated cell plate was generated. After a 3-day incubation period, cells were fixed and stained to allow fluorescence imaging of nuclei. Compounds (1 mM stock solutions) were serially diluted in half-log steps from the highest test concentration (1 micromol), and assayed over 10 concentrations with a maximum assay concentration of 0.1% DMSO. Automated fluorescence microscopy was carried out using a Molecular Devices ImageXpress Micro XL high-content imager, and images were collected with a 4× objective. 16-bit TIFF images were acquired and analyzed with MetaXpress 5.1.0.41 software.

[4] = system: ST486; assay: OncoPanel cell proliferation assay, ST486; type: cell-based, human; details: for Relative cell count (%) Mean: ST486
Procedure: as §1, §2, §3, §4, §5

[5] = system: MES-SA; assay: OncoPanel cell proliferation assay, MES-SA; type: cell-based, human
Procedure: as §1, §2, §3, §4, §5

[6] = system: PC-3; assay: OncoPanel cell proliferation assay, PC-3; details: for Relative cell count (%) Mean: PC-3
Procedure: as §6

[7] = system: DMS114; assay: OncoPanel cell proliferation assay, DMS114; type: cell-based, human; details: for Relative cell count (%) Mean: DMS114
Procedure: as §1, with “Cells” for “Cells were grown in RPMI 1640, 10% FBS, 2 mM L-alanyl-L-glutamine, 1 mM Na pyruvate, or a special medium. Cells”
as §2, §3, §4
GI50 is the concentration needed to reduce the observed growth by half (midway between the curve maximum and the time zero value). […] In rare instances, values <0 or >10 may be observed. […] Curve-fitting, calculations, and report generation was performed using a custom data reduction engine and MathIQ based software (AIM).

[8] = Homo sapiens, 72 h, 3-day incubation, read-out: Cell Count EC50
[9] = Homo sapiens, 72 h, 3-day incubation, read-out: Cell Count GI50
[10] = Homo sapiens, 72 h, 3-day incubation, read-out: Cell Count IC50

SMILES: CO[C@H]1C[C@@H]2CC[C@@H](C)[C@@](O)(O2)C(=O)C(=O)N2CCCC[C@H]2C(=O)O[C@H]([C@H](C)C[C@@H]2C[C@@H]3C[C@H]2C[C@H]3O)CC(=O)[C@H](C)/C=C(\C)[C@@H](O)[C@@H](OC)C(=O)[C@H](C)C[C@H](C)/C=C/C=C/C=C/1C [Formula I, 37R-hydroxynorbornylrapamycin]
- Cell Count Activity Area [1]: 2.30
- Relative cell count (%) Mean ([2]; 1.00E+00 microM): 50.8%
- Relative cell count (%) Mean ([2]; 1.00E−01 microM): 57.8%
- Relative cell count (%) Mean ([2]; 1.00E−02 microM): 54.7%
- Relative cell count (%) Mean ([2]; 1.00E−03 microM): 66.8%
- Relative cell count (%) Mean ([2]; 1.01E−04 microM): 90.7%
- Relative cell count (%) Mean ([2]; 3.16E−01 microM): 52.8%
- Relative cell count (%) Mean ([2]; 3.17E−02 microM): 58.0%
- Relative cell count (%) Mean ([2]; 3.17E−03 microM): 61.9%
- Relative cell count (%) Mean ([2]; 3.18E−04 microM): 78.1%
- Relative cell count (%) Mean ([2]; 3.18E−05 microM): 95.8%
- pEC50 [2, 8]: 9.49
- GI50 [2, 9]: 0.999 nM
- pIC50 [2, 10]: < 6.00
- Cell Count Activity Area ([2]; scale 0-10): 3.52
- pEC50 ([3]; Homo sapiens, SHP77, 72 h, read-out: Cell Count EC50): 6.51
- GI50 ([3]; Homo sapiens, SHP77, 72 h, read-out: Cell Count GI50): > 1000 nM
- pIC50 ([3]; Homo sapiens, SHP77, 72 h, read-out: Cell Count IC50): < 6.00
- Cell Count Activity Area ([3]; SHP-77, scale 0-10): 1.18
- Relative cell count (%) Mean ([3]; 1.00E+00 microM): 71.6%
- Relative cell count (%) Mean ([3]; 1.00E−01 microM): 83.4%
- Relative cell count (%) Mean ([3]; 1.00E−02 microM): 94.0%
- Relative cell count (%) Mean ([3]; 1.00E−03 microM): 96.5%
- Relative cell count (%) Mean ([3]; 1.01E−04 microM): 98.0%
- Relative cell count (%) Mean ([3]; 3.16E−01 microM): 75.9%
- Relative cell count (%) Mean ([3]; 3.17E−02 microM): 84.9%
- Relative cell count (%) Mean ([3]; 3.17E−03 microM): 89.5%
- Relative cell count (%) Mean ([3]; 3.18E−04 microM): 101.7%
- Relative cell count (%) Mean ([3]; 3.18E−05 microM): 99.1%
- pEC50 ([4]; Homo sapiens, 72 h, ST486, 3-day incubation, read-out: Cell Count EC50): 9.89
- GI50 ([4]; Homo sapiens, 72 h, ST486, 3-day incubation, read-out: Cell Count GI50): 0.226 nM
- pIC50 ([4]; Homo sapiens, 72 h, ST486, 3-day incubation, read-out: Cell Count IC50): < 6.00
- Cell Count Activity Area ([4]; ST486, scale 0-10): 3.70
- Relative cell count (%) Mean ([4]; 1.00E+00 microM): 50.5%
- Relative cell count (%) Mean ([4]; 1.00E−01 microM): 58.5%
- Relative cell count (%) Mean ([4]; 1.00E−02 microM): 56.8%
- Relative cell count (%) Mean ([4]; 1.00E−03 microM): 61.1%
- Relative cell count (%) Mean ([4]; 1.01E−04 microM): 81.6%
- Relative cell count (%) Mean ([4]; 3.16E−01 microM): 51.1%
- Relative cell count (%) Mean ([4]; 3.17E−02 microM): 54.8%
- Relative cell count (%) Mean ([4]; 3.17E−03 microM): 56.0%
- Relative cell count (%) Mean ([4]; 3.18E−04 microM): 63.3%
- Relative cell count (%) Mean ([4]; 3.18E−05 microM): 90.7%
- Relative cell count (%) Mean ([5]; 1.00E+00 microM): 27.9%
- Relative cell count (%) Mean ([5]; 1.00E−01 microM): 28.9%
- Relative cell count (%) Mean ([5]; 1.00E−02 microM): 32.0%
- Relative cell count (%) Mean ([5]; 1.00E−03 microM): 45.0%
- Relative cell count (%) Mean ([5]; 1.01E−04 microM): 93.8%
- Relative cell count (%) Mean ([5]; 3.16E−01 microM): 26.8%
- Relative cell count (%) Mean ([5]; 3.17E−02 microM): 28.6%
- Relative cell count (%) Mean ([5]; 3.17E−03 microM): 37.3%
- Relative cell count (%) Mean ([5]; 3.18E−04 microM): 64.3%
- Relative cell count (%) Mean ([5]; 3.18E−05 microM): 98.1%
- pEC50 [5, 8]: 9.49
- GI50 [5, 9]: 0.495 nM
- pIC50 [5, 10]: 9.19
- Cell Count Activity Area ([5]; scale 0-10): 5.42
- pEC50 ([6]; Homo sapiens, PC-3, 72 h, read-out: Cell Count EC50): 9.46
- GI50 ([6]; Homo sapiens, PC-3, 72 h, read-out: Cell Count GI50): 1.89 nM
- pIC50 ([6]; Homo sapiens, PC-3, 72 h, read-out: Cell Count IC50): 8.02
- Cell Count Activity Area ([6]; PC-3, scale 0-10): 3.97
- Relative cell count (%) Mean ([6]; 1.00E+00 microM): 42.2%
- Relative cell count (%) Mean ([6]; 1.00E−01 microM): 47.9%
- Relative cell count (%) Mean ([6]; 1.00E−02 microM): 53.6%
- Relative cell count (%) Mean ([6]; 1.00E−03 microM): 59.2%
- Relative cell count (%) Mean ([6]; 1.01E−04 microM): 87.3%
- Relative cell count (%) Mean ([6]; 3.16E−01 microM): 43.8%
- Relative cell count (%) Mean ([6]; 3.17E−02 microM): 47.1%
- Relative cell count (%) Mean ([6]; 3.17E−03 microM): 59.0%
- Relative cell count (%) Mean ([6]; 3.18E−04 microM): 69.1%
- Relative cell count (%) Mean ([6]; 3.18E−05 microM): 93.7%
- Cell Count Activity Area ([7]; DMS114, scale 0-10): 4.35
- Relative cell count (%) Mean ([7]; 1.00E+00 microM): 39.3%
- Relative cell count (%) Mean ([7]; 1.00E−01 microM): 44.1%
- Relative cell count (%) Mean ([7]; 1.00E−02 microM): 50.7%
- Relative cell count (%) Mean ([7]; 1.00E−03 microM): 57.7%
- Relative cell count (%) Mean ([7]; 1.01E−04 microM): 77.8%
- Relative cell count (%) Mean ([7]; 3.16E−01 microM): 41.4%
- Relative cell count (%) Mean ([7]; 3.17E−02 microM): 44.7%
- Relative cell count (%) Mean ([7]; 3.17E−03 microM): 51.7%
- Relative cell count (%) Mean ([7]; 3.18E−04 microM): 67.2%
- Relative cell count (%) Mean ([7]; 3.18E−05 microM): 90.1%
- pEC50 ([7]; Homo sapiens, DMS-114, 72 h, DMS114, 3-day incubation, read-out: Cell Count EC50): 9.60
- GI50 ([7]; Homo sapiens, DMS-114, 72 h, DMS114, 3-day incubation, read-out: Cell Count GI50): 0.0822 nM
- pIC50 ([7]; Homo sapiens, DMS-114, 72 h, DMS114, 3-day incubation, read-out: Cell Count IC50): 8.36

Source: US20210024542A1 (Torcept Therapeutics, Inc., priority 2018, published 2021)
